How the values were obtained:
[1] = system: Italian ryegrass; experiment: Test C postemergence; assay type: in vivo, Lolium multiflorum
In short: (§1)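 Greenhouse herbicide screen. Pre: seeded loam/sand, sprayed at planting. Post: 1–4 leaf plants (2–18 cm) in peat-based mix. Formulation: solvent mixture + surfactant, non-phytotoxic. Readout: visual % control vs untreated, 13–15 d; dash = not tested.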

[2] = system: pigweed; experiment: Test C postemergence; assay type: in vivo, Amaranthus retroflexus
Excerpt: (§2) Seeds of plant species selected from blackgrass (Alopecurus myosuroides), Italian ryegrass (Lolium multiflorum), wheat, winter (winter wheat, Triticum aestivum), galium (catchweed bedstraw, Galium aparine), corn (Zea mays), large (Lg) crabgrass (Digitaria sanguinalis), giant foxtail (Setaria faberii), johnsongrass (Sorghum halepense), lambsquarters (Chenopodium album), morningglory (Ipomoea coccinea), yellow nutsedge (Cyperus esculentus), pigweed (Amaranthus retroflexus), ragweed (common ragweed, Ambrosia elatior), soybean (Glycine max), barnyardgrass (Echinochloa crus-galli), oilseed rape (Brassica napus), waterhemp (common waterhemp, Amaranthus rudis), kochia (Kochia scoparia), wild oat (Avena fatua), surinam grass (Brachiaria decumbens), foxtail, green (green foxtail, Setaria viridis), goosegrass (Eleusine indica), bromegrass, downy (downy bromegrass, Bromus tectorum), nightshade (eastern black nightshade, Solanum ptycanthum), cocklebur (common cocklebur, Xanthium strumarium), cupgrass, woolly (woolly cupgrass, Eriochloa villosa), bermudagrass (Cynodon dactylon), sunflower, (common oilseed sunflower, Helianthus annuus), Russian thistle (Salsola kali), and velvetleaf (Abutilon theophrasti) were planted into a blend of loam soil and sand and treated preemergence with test chemicals formulated in a non-phytotoxic solvent mixture which included a surfactant.
(§3) At the same time, plants selected from these crop and weed species and also barley, winter (winter barley, Hordeum vulgare), windgrass (Apera spica-venti), chickweed (common chickweed, Stellaria media), deadnettle (henbit deadnettle, Lamium amplexicaule), and canarygrass (littleseed canarygrass, Phalaris minor) were planted in pots containing Redi-Earth® planting medium (Scotts Company, 14111 Scottslawn Road, Marysville, Ohio 43041) comprising spaghnum peat moss, vermiculite, wetting agent and starter nutrients and treated with postemergence applications of test chemicals formulated in the same manner. Plants ranged in height from 2 to 18 cm (1- to 4-leaf stage) for postemergence treatments. Treated plants and controls were maintained in a greenhouse for 13 to 15 days, after which time all species were compared to controls and visually evaluated. Plant response ratings, summarized in Table C, are based on a scale of 0 to 100 where 0 is no effect and 100 is complete control. A dash (-) response means no test result.

[3] = system: wild oat; experiment: Test C postemergence; assay type: in vivo, Avena fatua
Excerpt: as §2, §3

[4] = system: rice; experiment: Test B flooded paddy test; assay type: in vivo, Oryza sativa; settings: Flood, 250 g ai/ha, 0 to 100 scale where 0 is no effect and 100 is complete control
In short: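 Visual ratings on a 0 to 100 scale, where 100 means complete control, compared treated plants with controls after 13 to 15 days in a greenhouse. Treatment went into paddy water 3 cm deep over the soil, applied to plants at the 2-leaf stage.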

[5] = system: kochia; experiment: Test C postemergence; assay type: in vivo, Kochia scoparia
In short: as §1

[6] = system: giant foxtail; experiment: Test A preemergence; assay type: in vivo, Setaria faberii; settings: 0 to 100 scale where 0 is no effect and 100 is complete control
In short: (§4)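 Injury scores run from 0, no effect, to 100, complete control, judged by eye against untreated plants roughly 10 days after treatment. Chemicals carried a surfactant in a non-phytotoxic solvent and went onto loam–sand soil preemergence or onto one- to two-leaf seedlings postemergence.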

[7] = system: yellow nutsedge; experiment: Test C postemergence; assay type: in vivo, Cyperus esculentus
In short: as §1

[8] = system: corn; experiment: Test A postemergence; assay type: in vivo, Zea mays; settings: 0 to 100 scale where 0 is no effect and 100 is complete control
In short: as §4

[9] = system: giant foxtail; experiment: Test A postemergence; assay type: in vivo, Setaria faberii; settings: 0 to 100 scale where 0 is no effect and 100 is complete control
In short: as §4

[10] = system: morningglory; experiment: Test C postemergence; assay type: in vivo, Ipomoea coccinea
Excerpt: as §2, §3

[11] = 31 g ai/ha, postemergence, visual rating, scale 0 to 100 (0 no effect, 100 complete control), 13 to 15 days
[12] = 16 g ai/ha, postemergence, 0 is no effect, 100 is complete control
[13] = 125 g ai/ha, postemergence, visual rating, scale 0 to 100 (0 no effect, 100 complete control)
[14] = Postemergence, 62 g ai/ha, scale 0 to 100 (0 no effect, 100 complete control)

FC(F)c1cn(-c2ccccc2Oc2ncc(Cl)cn2)nn1 [Compound 147, 5-chloro-2-[2-[4-(difluoromethyl)-1H-1,2,3-triazol-1-yl]phenoxy]pyrimidine]
Ryegrass, Italian plant response rating [1, 11]: 0 | pest or weed control at 16 g/ha ([1]; Lolium multiflorum, post-emergence, 16 g ai/ha, postemergence, 0 is no effect, 100 is complete control, read-out: Plant response rating (0 to 100), Ryegrass, Italian): 0% | pest or weed control at 125 g/ha ([1]; Lolium multiflorum, post-emergence, 125 g ai/ha, postemergence, visual rating, scale 0 to 100 (0 no effect, 100 complete control), read-out: Plant response rating, Ryegrass, Italian): 5% | pest or weed control at 62 g/ha ([1]; Lolium multiflorum, post-emergence, Postemergence, 62 g ai/ha, scale 0 to 100 (0 no effect, 100 complete control), read-out: Plant response rating, Ryegrass, Italian): 0% | Pigweed plant response rating [2, 11]: 60 | pest or weed control at 16 g/ha ([2]; Amaranthus retroflexus, post-emergence, 16 g ai/ha, postemergence, 0 is no effect, 100 is complete control, read-out: Plant response rating (0 to 100), Pigweed): 35% | pest or weed control at 125 g/ha ([2]; Amaranthus retroflexus, post-emergence, 125 g ai/ha, postemergence, visual rating, scale 0 to 100 (0 no effect, 100 complete control), read-out: Plant response rating, Pigweed): 85% | pest or weed control at 62 g/ha ([2]; Amaranthus retroflexus, post-emergence, Postemergence, 62 g ai/ha, scale 0 to 100 (0 no effect, 100 complete control), read-out: Plant response rating, Pigweed): 75% | Oat, Wild plant response rating [3, 11]: 0 | pest or weed control at 16 g/ha ([3]; Avena fatua, post-emergence, 16 g ai/ha, postemergence, 0 is no effect, 100 is complete control, read-out: Plant response rating (0 to 100), Oat, Wild): 0% | pest or weed control at 125 g/ha ([3]; Avena fatua, post-emergence, 125 g ai/ha, postemergence, visual rating, scale 0 to 100 (0 no effect, 100 complete control), read-out: Plant response rating, Oat, Wild): 5% | pest or weed control at 62 g/ha ([3]; Avena fatua, post-emergence, Postemergence, 62 g ai/ha, scale 0 to 100 (0 no effect, 100 complete control), read-out: Plant response rating, Oat, Wild): 0% | plant injury at 250 g/ha ([4]; Oryza sativa, read-out: Plant response rating, Rice): 35% | pest or weed control at 16 g/ha ([5]; Bassia scoparia, post-emergence, 16 g ai/ha, postemergence, 0 is no effect, 100 is complete control, read-out: Plant response rating (0 to 100), Kochia): 40% | pest or weed control at 31 g/ha ([5]; Bassia scoparia, post-emergence, 31 g ai/ha, postemergence, visual rating, scale 0 to 100 (0 no effect, 100 complete control), 13 to 15 days, read-out: Kochia plant response rating): 90% | pest or weed control at 125 g/ha ([5]; Bassia scoparia, post-emergence, 125 g ai/ha, postemergence, visual rating, scale 0 to 100 (0 no effect, 100 complete control), read-out: Plant response rating, Kochia): 100% | pest or weed control at 62 g/ha ([5]; Bassia scoparia, post-emergence, Postemergence, 62 g ai/ha, scale 0 to 100 (0 no effect, 100 complete control), read-out: Plant response rating, Kochia): 95% | pest or weed control at 125 g/ha ([6]; Setaria faberi, pre-emergence, 240 h, 125 g ai/ha, read-out: Plant response rating, Foxtail, Giant): 100% | pest or weed control at 500 g/ha ([6]; Setaria faberi, pre-emergence, 240 h, 500 g ai/ha, read-out: Foxtail, Giant plant response rating): 100% | Nutsedge, Yellow plant response rating [7, 11]: 0 | pest or weed control at 16 g/ha ([7]; Cyperus, post-emergence, 16 g ai/ha, postemergence, 0 is no effect, 100 is complete control, read-out: Plant response rating (0 to 100), Nutsedge, Yellow): 0% | pest or weed control at 125 g/ha ([7]; Cyperus, post-emergence, 125 g ai/ha, postemergence, visual rating, scale 0 to 100 (0 no effect, 100 complete control), read-out: Plant response rating, Nutsedge, Yellow): 5% | pest or weed control at 62 g/ha ([7]; Cyperus, post-emergence, Postemergence, 62 g ai/ha, scale 0 to 100 (0 no effect, 100 complete control), read-out: Plant response rating, Nutsedge, Yellow): 0% | plant injury at 125 g/ha ([8]; Zea mays, post-emergence, 240 h, 125 g ai/ha, read-out: Corn plant response rating): 40% | Corn plant response rating (crop injury, 0 = no effect, 100 = complete kill) at 500 g/ha ([8]; Zea mays, post-emergence, 240 h, 500 g ai/ha): 90% | pest or weed control at 125 g/ha ([9]; Setaria faberi, post-emergence, 240 h, 125 g ai/ha, read-out: Foxtail, Giant plant response rating): 90% | pest or weed control at 500 g/ha ([9]; Setaria faberi, post-emergence, 240 h, 500 g ai/ha, read-out: Plant response rating, Foxtail, Giant): 90% | Morningglory plant response rating [10, 11]: 70 | pest or weed control at 16 g/ha ([10]; Ipomoea, post-emergence, 16 g ai/ha, postemergence, 0 is no effect, 100 is complete control, read-out: Plant response rating (0 to 100), Morningglory): 70% | pest or weed control at 125 g/ha ([10]; Ipomoea, post-emergence, 125 g ai/ha, postemergence, visual rating, scale 0 to 100 (0 no effect, 100 complete control), read-out: Plant response rating, Morningglory): 80% | pest or weed control at 62 g/ha ([10]; Ipomoea, post-emergence, Postemergence, 62 g ai/ha, scale 0 to 100 (0 no effect, 100 complete control), read-out: Plant response rating, Morningglory): 75%

Clc1cnc(Oc2cccc(Br)c2-n2cc(I)nn2)nc1 [Compound 117]
Plant response rating (0 to 100), Ryegrass, Italian [1, 12]: 0 | Plant response rating, Ryegrass, Italian [1, 13]: 5 | Plant response rating, Ryegrass, Italian [1, 14]: 0 | Plant response rating (0 to 100), Pigweed [2, 12]: 80 | Plant response rating, Pigweed [2, 13]: 90 | Plant response rating, Pigweed [2, 14]: 85 | Plant response rating (0 to 100), Oat, Wild [3, 12]: 10 | Plant response rating, Oat, Wild [3, 13]: 20 | Plant response rating, Oat, Wild [3, 14]: 10 | Plant response rating, Rice [4]: 0 | Plant response rating (0 to 100), Kochia [5, 12]: 90 | Plant response rating, Kochia [5, 13]: 100 | Plant response rating, Kochia [5, 14]: 100 | Plant response rating, Foxtail, Giant ([6]; 125 g ai/ha): 90 | Foxtail, Giant plant response rating ([6]; 500 g ai/ha): 100 | Plant response rating (0 to 100), Nutsedge, Yellow [7, 12]: 5 | Plant response rating, Nutsedge, Yellow [7, 13]: 5 | Plant response rating, Nutsedge, Yellow [7, 14]: 5 | Plant response rating, Corn ([8]; 125 g ai/ha): 30 | Plant response rating, Corn ([8]; 500 g ai/ha): 50 | Plant response rating, Foxtail, Giant ([9]; 125 g ai/ha): 90 | Plant response rating, Foxtail, Giant ([9]; 500 g ai/ha): 90 | Plant response rating (0 to 100), Morningglory [10, 12]: 80 | Plant response rating, Morningglory [10, 13]: 90 | Plant response rating, Morningglory [10, 14]: 90
